Measurements published in ChEMBL document CHEMBL1201862, “PubChem BioAssay data set” (2004).
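Compound exposure: 48 hours, 5 concentrations, 96-well plates. GI50 is the concentration that inhibits growth by half.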 Active and inactive are the calls of the source. No stated cut-off is given here; in the data, active = GI50 up to about 1.1 µM and inactive = higher.

Experiments:
Test in all cases: NCI anticancer screen, dose series, 48 h
[1] = tested on: A498
[2] = tested on: CAKI-1
[3] = tested on: DMS-273
[4] = tested on: HCC 2998
[5] = tested on: HOP-92
[6] = tested on: LOX IMVI
[7] = tested on: M19-MEL
[8] = tested on: NCI-H226
[9] = tested on: OVCAR-4
[10] = tested on: SK-MEL-2
[11] = tested on: SK-MEL-5
[12] = tested on: SNB-78
[13] = tested on: U-251
[14] = tested on: UACC-257
[15] = tested on: ACHN
[16] = tested on: LXFL 529
[17] = tested on: M14
[18] = tested on: TK-10

Structure (SMILES)	GI50 [1]	GI50 [2]	GI50 [3]	GI50 [4]	GI50 [5]	GI50 [6]	GI50 [7]	GI50 [8]	GI50 [9]	GI50 [10]	GI50 [11]	GI50 [12]	GI50 [13]	GI50 [14]	GI50 [15]	GI50 [16]	GI50 [17]	GI50 [18]
CN(C)CCNC(=O)c1cccc2[nH]c(-c3ccccn3)nc12	36.6 µM (inactive)	21.5 µM (inactive)	26 µM (inactive)	49 µM (inactive)	19.6 µM (inactive)	32.5 µM (inactive)	29.7 µM (inactive)	18.5 µM (inactive)	27.5 µM (inactive)	39.7 µM (inactive)	21.7 µM (inactive)	34.9 µM (inactive)	38.8 µM (inactive)	28.6 µM (inactive)	–	–	–	–
CCC(C)C1NC(=O)CNC(=O)C2Cc3c([nH]c4cc(O)ccc34)[S+]([O-])CC(NC(=O)CNC1=O)C(=O)NC(CC(=O)O)C(=O)N1CC(O)CC1C(=O)NC(C(C)C(O)CO)C(=O)N2 (stereo unspecified)	2.83 µM (inactive)	–	2.23 µM (inactive)	0.653 µM (active)	1.68 µM (inactive)	2.38 µM (inactive)	3.24 µM (inactive)	1.6 µM (inactive)	2.07 µM (inactive)	2.08 µM (inactive)	2.43 µM (inactive)	0.664 µM (active)	3.83 µM (inactive)	2.44 µM (inactive)	–	–	–	–
CCOC(=O)C(C#N)(Cc1c[nH]c2ccccc12)NC(C)=O (stereo unspecified)	–	> 100 µM (inactive)	> 100 µM (inactive)	> 100 µM (inactive)	> 100 µM (inactive)	> 100 µM (inactive)	> 100 µM (inactive)	> 100 µM (inactive)	> 100 µM (inactive)	> 100 µM (inactive)	> 100 µM (inactive)	–	> 100 µM (inactive)	> 100 µM (inactive)	> 100 µM (inactive)	> 100 µM (inactive)	> 100 µM (inactive)	> 100 µM (inactive)
OCC#CCNCl	> 100 µM (inactive)	–	> 100 µM (inactive)	> 100 µM (inactive)	> 100 µM (inactive)	> 100 µM (inactive)	> 100 µM (inactive)	> 100 µM (inactive)	> 100 µM (inactive)	> 100 µM (inactive)	> 100 µM (inactive)	> 100 µM (inactive)	> 100 µM (inactive)	> 73.6 µM (inactive)	–	–	–	–
